From patent US20250186490A1, “METHOD OF CHEMICALLY TREATING OR CULTIVATING MACROPHAGES AND THEIR THERAPEUTIC APPLICATIONS IN FIBROTIC DISEASES” (MAPONOS THERAPEUTICS INC., priority 2022, published 2025) come the findings set out here.

Molecules are shown by their SMILES.

Assay [1] relates to Bone Marrow-Derived Macrophages (BMDM). In words: MCP-1 ELISA on culture supernatant of MRCi-treated macrophages cultured under hypoxia. Format: cell-based, mouse. The note with it: then hypoxia, vs untreated. The protocol: (§1) In this example, macrophages were isolated and cultivated from the source of murine bone marrow. Eight-week-old male C57/BL6 mice (The Jackson Laboratory, ME, USA) were sacrificed by cervical dislocation. The tibia and femur were separated, and the bone marrow was flushed out using ice-cold PBS solution. Bone marrow cells were then resuspended into single-cell suspension and washed with ice-cold PBS. The cells were treated with Red Blood Cell Lysis Buffer (MilliporeSigma, MA, USA). After the treatment, the cell suspension was washed with ice-cold PBS then seeded with a culture medium.
(§2) The culture medium for the BMDM used in this example includes RPMI1640 (Thermo Fisher Scientific, MA, USA) containing 10% heat-inactivated Fetal Bovine Serum (Gemini Bio, CA, USA), supplied with 100 ng/ml of Recombinant Mouse M-CSF Protein (R&D Systems, MN, USA). Fresh medium was supplied on day three and day five post isolation. On day six of the culturing process, 1 μM of Rotenone (MilliporeSigma, MA, USA) in DMSO solution was added into the culturing medium and incubated for 2 hours with the cells. Then the culture was replaced with fresh medium and was placed into a hypoxia culture chamber with 1% oxygen supply and 5% carbon dioxide at 37° C. On day seven, the cells were ready for downstream treatments. In the untreated group, only vehicle (DMSO) was added as the control. In addition to Rotenone, the following mitochondrial respiratory chain inhibitors (MRCi) were also tested following the same culturing process: Deguclin (10 μM), Piericidin A (0.1 μM), and Capsaicin (5 μM).
To evaluate the enhanced anti-fibrosis ability of the chemically-treated BMDM, ELISA assays were applied using commercially purchased testing kits. In this example, a Mouse MCP-1 ELISA Kit and a Mouse IP-10 ELISA Kit (CXCL10) (both from Abcam plc, Cambridge, UK) were used. Tests using both kits were performed according to the instructions provided by Abcam. […]
On the technique in general: ELISA stands for enzyme-linked immunosorbent assay.

Assay [2] has the same test system. As to the kind of experiment: CXCL10 (IP-10) ELISA on culture supernatant of MRCi-treated macrophages cultured under hypoxia. Format: cell-based, mouse. As to conditions: then hypoxia (1% oxygen), vs untreated. The protocol:
as §1
as §2, with “In addition to Rotenone, the following mitochondrial respiratory chain inhibitors (MRCi) were also tested following the same culturing process: Deguclin (10 μM), Piericidin A (0.1 μM), and Capsaicin (5 μM).” left out

Take `C/C=C(\C)[C@H](O)[C@H](C)/C=C(C)/C=C/C/C(C)=C/Cc1nc(OC)c(OC)c(O)c1C` [Piericidin A]: the MCP-1 level result in assay [1] (BMDM treated with 0.1 μM Piericidin A) is reported as “reduce the MCP-1 level”. In the case of `COc1cc(CNC(=O)CCCC/C=C/C(C)C)ccc1O` [capsaicin, Capsaicin], in assay [1] (BMDM treated with 5 μM capsaicin), the MCP-1 level entry is listed as “reduce the MCP-1 level”. On to `COc1cc2c(cc1OC)[C@@H]1C(=O)c3ccc4c(c3O[C@@H]1CO2)C=CC(C)(C)O4` [deguelin, Deguelin], for which, in assay [2] (BMDM treated with 10 μM deguelin for 2 hours), the “CXCL 10 level” value is on record as “increased CXCL 10 level”. With `C=C(C)[C@H]1Cc2c(ccc3c2O[C@@H]2COc4cc(OC)c(OC)cc4[C@@H]2C3=O)O1` [rotenone, Rotenone], the MCP-1 level entry in assay [1] (BMDM treated with 1 μM rotenone) was “reduce the MCP-1 level”. Moreover, in assay [2] (BMDM treated with 1 μM rotenone for 2 hours), the “CXCL 10 level” value is on record as “increased CXCL 10 level”.
